Assay results: patent US8748661B2, “Polyamino polyketide antibiotics and uses thereof” (priority 2008, dated 2014)
In brackets after ≈: the same amount, converted by molar mass.

Key:
Format in all cases: cell-based
[1] = test system: Bacillus cereus XJ8; test: MIC determination (NCCLS, 96-well, LB); conditions: 1 × 10^6 CFU/ml in LB, 30° C., 24 h
Experimental: (§1) The minimum inhibition concentration (MIC) of zeamine I was carried out according to the NCCLS guidelines (4). Briefly, 96-well plates containing 2-fold serial dilutions of zeamine I and control antibiotics were prepared with LB liquid medium. The fresh overnight LB cultures of tested bacterial strains were then inoculated to the above plates after dilution to yield a final density of 10^6 CFU/ml and 10^7 CFU/ml, respectively. The plates were then incubated with gentle shaking at 30° C. or 37° C. depending on the preferred growth temperature of the tested strains. After 24 h, the plates were collected to measure OD600. The MIC was defined as the lowest concentration of the antibiotic allowing no visible growth. The MIC assay was repeated twice each time with triplicate.

[2] = test system: Staphylococcus aureus BBA-41; test: MIC determination (NCCLS, 96-well, LB); conditions: BBA41, 1 × 10^6 CFU/ml in LB, 30° C., 24 h
Experimental: as §1

[3] = test system: Aeromonas hydrophila; test: MIC determination (NCCLS, 96-well, LB); conditions: 1 × 10^6 CFU/ml in LB, 30° C., 24 h
Experimental: as §1

[4] = test system: Pseudomonas aeruginosa PA14; test: MIC determination (NCCLS, 96-well, LB); conditions: 1 × 10^6 CFU/ml in LB, 30° C., 24 h
Experimental: as §1

[5] = test system: Klebsiella pneumonia; test: MIC determination (NCCLS, 96-well, LB); conditions: Klebsiella pneumoniae, 1 × 10^6 CFU/ml in LB, 30° C., 24 h
Experimental: as §1

[6] = test system: Enterobacter aerogenes ATCC 13048; test: MIC determination (NCCLS, 96-well, LB); conditions: Klebsiella aerogenes, ATCC13048, 1 × 10^6 CFU/ml in LB, 30° C., 24 h
Experimental: as §1

[7] = test system: E. coli DH5α; test: MIC determination (NCCLS, 96-well, LB); conditions: Escherichia coli, 1 × 10^6 CFU/ml in LB, 30° C., 24 h
Experimental: as §1

[8] = test system: Burkholderia cepacia H111; test: MIC determination (NCCLS, 96-well, LB); conditions: 1 × 10^6 CFU/ml in LB, 30° C., 24 h
Experimental: as §1

[9] = test system: Staphylococcus aureus ATCC 25531; test: MIC determination (NCCLS, 96-well, LB); conditions: ATCC25531, 1 × 10^6 CFU/ml in LB, 30° C., 24 h
Experimental: as §1

[10] = test system: Burkholderia cepacia J2315; test: MIC determination (NCCLS, 96-well, LB); conditions: 1 × 10^6 CFU/ml in LB, 30° C., 24 h
Experimental: as §1

[11] = test system: E. coli CFT073; test: MIC determination (NCCLS, 96-well, LB); conditions: Escherichia coli, 1 × 10^6 CFU/ml in LB, 30° C., 24 h
Experimental: as §1

[12] = test system: Escherichia coli strain DH5α; test: Antibiotic bioassay (agar well inhibition zone); conditions: 20 microliters of fraction in 4-mm wells, 37° C. overnight
Experimental: The bactericidal activity was assayed using Escherichia coli strain DH5α following the method described previously by Zhang et al. (Zhang et al. (1998). Factors affecting biosynthesis by Xanthomonas albilineans of albicidin antibiotics and phytotoxins. J. Appl. Microbiol. 85: 1023-1028). Briefly, an overnight LB culture of strain DH5α was diluted by 10-fold in sterilized water, and 100 microliters of the dilute were added to 5 ml of 1% agarose solution, which was autoclaved with temperature being maintained at 50° C. The bioassay plate was prepared by adding the mixture onto a plate containing 20 ml LB agar. Bioassay was conducted by adding 20 microliters of bacterial supernatants or fractions to the 4-mm diameter wells in bioassay plate. The plate was incubated at 37° C. overnight before examination of inhibition zone.

[13] = test system: Pseudomonas aeruginosa PAO1; test: MIC determination (NCCLS, 96-well, LB); conditions: 1 × 10^6 CFU/ml in LB, 30° C., 24 h
Experimental: as §1

[14] = test system: Salmonella enterica; test: MIC determination (NCCLS, 96-well, LB); conditions: 24 h
Experimental: as §1

[15] = test system: Gram-negative and Gram-positive bacterial pathogens; test: MIC on a range of bacterial pathogens (summary statement); conditions: summary of Table 3, in words
Experimental: as §1
The minimum inhibition concentration (MIC) of zeamine I was determined on a range of bacterial pathogens. […] In contrast, a high dosage of ampicillin, which is a commonly used antibiotic, was required to inhibit the growth of these bacterial pathogens.

SMILES	MIC [1]	MIC [2]	MIC [3]	MIC [4]	MIC [5]	MIC [6]	MIC [7]	MIC [8]	MIC [9]	MIC [10]	MIC [11]	antibiotic activity of HPLC fraction in bioassay [12]	MIC [13]	MIC [14]	dosage required to inhibit the growth of these bacterial pathogens [15]
CN(C)[C@@H]1C(O)=C(C(N)=O)C(=O)[C@@]2(O)C(O)=C3C(=O)c4c(O)cccc4[C@@](C)(O)[C@H]3C[C@@H]12 [Tetracycline]	6.2 µg/mL (≈ 14 µM)	6.2 µg/mL (≈ 14 µM)	6.2 µg/mL (≈ 14 µM)	12.5 µg/mL (≈ 28.1 µM)	6.2 µg/mL (≈ 14 µM)	3.1 µg/mL (≈ 6.98 µM)	3.1 µg/mL (≈ 6.98 µM)	12.5 µg/mL (≈ 28.1 µM)	3.1 µg/mL (≈ 6.98 µM)	50 µg/mL (≈ 113 µM)	0.75 µg/mL (≈ 1.69 µM)				
CCCCCC(N)CCCCCCCC(N)CCCCCCCC(N)CCCCCCCC(N)CCCCCCCC(O)CCN (stereo not drawn) [Zeamine II]												minor active fraction			
NC[C@H]1O[C@H](O[C@H]2[C@H](O)[C@@H](O[C@H]3O[C@H](CO)[C@@H](O)[C@H](N)[C@H]3O)[C@H](N)C[C@@H]2N)[C@H](O)[C@@H](O)[C@@H]1O [Kanamycin]	3.1 µg/mL (≈ 6.4 µM)	12.5 µg/mL (≈ 25.8 µM)	25 µg/mL (≈ 51.6 µM)	200 µg/mL (≈ 413 µM)	3.1 µg/mL (≈ 6.4 µM)	3.1 µg/mL (≈ 6.4 µM)	10 µg/mL (≈ 20.6 µM)	6.2 µg/mL (≈ 12.8 µM)	6.2 µg/mL (≈ 12.8 µM)	400 µg/mL (≈ 826 µM)	6.2 µg/mL (≈ 12.8 µM)		200 µg/mL (≈ 413 µM)	12.5 µg/mL (≈ 25.8 µM)	
CC1(C)S[C@@H]2[C@H](NC(=O)[C@H](N)c3ccccc3)C(=O)N2[C@H]1C(=O)O [Ampicillin]	100 µg/mL (≈ 286 µM)	> 500 µg/mL	125 µg/mL (≈ 358 µM)	800 µg/mL (≈ 2290 µM)	> 800 µg/mL	> 800 µg/mL	25 µg/mL (≈ 71.5 µM)	> 800 µg/mL	15.6 µg/mL (≈ 44.6 µM)	> 800 µg/mL	25 µg/mL (≈ 71.5 µM)		400 µg/mL (≈ 1140 µM)	12.5 µg/mL (≈ 35.8 µM)	high dosage
